Test results: ChEMBL document CHEMBL1156553, “Prenylated dihydrochalcones from Boronia bipinnata that inhibit the malarial parasite enzyme target hemoglobinase II” (J Nat Prod, 2008)

Test: Inhibition of recombinant hemoglobinase 2

IC50 [µM]	Structure (SMILES)
64	CC(C)=CCC/C(C)=C/CC/C(C)=C/Cc1cc(CCC(=O)c2c(O)cc(O)cc2O)ccc1O [BIPINNATONE A]
51	CC(C)=CCC/C(C)=C/Cc1cc(CCC(=O)c2c(O)cc(O)cc2O)ccc1O [BIPINNATONE B]
0.003	CC(C)CC(=O)N[C@H](C(=O)N[C@H](C(=O)N[C@@H](CC(C)C)[C@@H](O)CC(=O)N[C@@H](C)C(=O)N[C@@H](CC(C)C)[C@@H](O)CC(=O)O)C(C)C)C(C)C [PEPSTATIN]
